Paper PMC6030159 (Scientific Reports, 2018)
Several values for one entry are separate records, joined by “and”; a condition that tells them apart may be missing. Equal values may be shown once. Entries after “also recorded” stand apart in the source; their conditions may differ.

Key:
endogenous MYC protein = test: Western blot of endogenous MYC in HeLa cells; type: cell-based; details: 10 μM, 24 hours
Method: (§1) These assays were performed essentially as described in[67],[68]. For further information on immunohistochemistry, and on primers and antibodies, see Supplementary Information.

[1] = target: T1, endogenous MYC:MAX interaction (Homo sapiens, UniProt P01106); test: isPLA endogenous MYC:MAX in breast cancer cells (MCF7); type: cell-based; details: 24 hours; for MYC:MAX isPLA signals, % of DMSO-treated controls: 10 μM, breast cancer cells; for IC50: titration in MCF7 cells, read-out: IC50 for inhibition of MYC:MAX by isPLA
T1 construct: endogenous in cells; host or cells: breast cancer cells; MCF7 named for the titration
T1 sequence (P01106 whole entry): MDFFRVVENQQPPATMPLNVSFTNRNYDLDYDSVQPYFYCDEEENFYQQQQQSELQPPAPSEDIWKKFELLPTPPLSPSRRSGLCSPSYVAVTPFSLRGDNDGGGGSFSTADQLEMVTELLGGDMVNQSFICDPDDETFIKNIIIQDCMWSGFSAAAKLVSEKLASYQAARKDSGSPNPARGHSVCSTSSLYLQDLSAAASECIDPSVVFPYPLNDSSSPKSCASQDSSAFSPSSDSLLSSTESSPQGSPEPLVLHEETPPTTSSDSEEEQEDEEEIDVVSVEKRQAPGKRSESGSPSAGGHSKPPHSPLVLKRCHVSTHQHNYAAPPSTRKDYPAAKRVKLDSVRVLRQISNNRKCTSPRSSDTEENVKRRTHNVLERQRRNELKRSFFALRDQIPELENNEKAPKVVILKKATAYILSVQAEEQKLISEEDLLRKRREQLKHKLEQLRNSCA
Method: The isPLA assay has been described. Antibodies used are listed in Supplementary Information. […] Slides were washed in PBS with 0.05% Tween 20 and incubated in blocking buffer after which isPLA was performed using the Duolink® in situ PLA kit (Sigma-Aldrich) according to the manufacturer’s protocol. DNA was stained with DAPI. Incubation with primary antibodies were performed at +4 °C overnight. Images were taken using an Axiovert 200M inverted microscope (Zeiss) and fluorescent dots were quantified using semi-automated analysis in ImageJ (http://imagej.net) and averaged to number of dots per cell.

FRA1:JUN = system: T2, FRA1:JUN; test: isPLA endogenous FRA1:JUN; type: cell-based, human; details: 10 μM
T2 construct: endogenous in cells
Method: The isPLA assay has been described. Antibodies used are listed in Supplementary Information. Briefly, cells were grown on collagen-coated chamber slides (Falcon), and treated with 1–10 μM of compounds, respectively, for 16 hours, then washed twice with PBS and fixed in ice cold methanol for 5–15 min at room temperature. Slides were washed in PBS with 0.05% Tween 20 and incubated in blocking buffer after which isPLA was performed using the Duolink® in situ PLA kit (Sigma-Aldrich) according to the manufacturer’s protocol. DNA was stained with DAPI. Incubation with primary antibodies were performed at +4 °C overnight. Images were taken using an Axiovert 200M inverted microscope (Zeiss) and fluorescent dots were quantified using semi-automated analysis in ImageJ (http://imagej.net) and averaged to number of dots per cell.

[2] = system: MYC-driven transcription (ODC1, RSG16, CR2); test: RT-qPCR of MYC target genes in U2OS-MYC-ER cells; type: cell-based; details: 10 μM, 24 hours
Method: To investigate the effect of the compounds on MYC-driven transcription, we utilized U2OS cells expressing a MYC-estrogen receptor (MYC-ER) fusion protein, the activity of which is regulated by the ligand 4-hydroxytamoxifen (HOT)[43].
as §1

MYCbHLHZip:MAXbHLHZip = target: T3, MYCbHLHZip:MAXbHLHZip (Homo sapiens, UniProt P01106); test: MST MYC:MAX heterodimer formation assay; type: binding; details: for shift of MAX thermophoresis relative to DMSO (MYC:MAX MST): 50 µM compound, 1 µM MYCbHLHZip
T3 construct: 6xHis (N); made in house; host or cells: E. coli BL21 (DE3), pET28a
T3 sequence (P01106 367-447 limits assumed): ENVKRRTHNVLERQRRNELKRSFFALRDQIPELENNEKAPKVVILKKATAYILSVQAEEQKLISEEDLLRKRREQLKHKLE
Excerpt: We next investigated the capacity of the small molecule inhibitors to directly target the MYC:MAX interaction in vitro. Two biophysical interaction assays, microscale thermophoresis (MST)[44] and surface plasmon resonance (SPR)[45], were developed using recombinant MYC and MAX proteins (Suppl. Fig. S1C) (manuscript in prep.). MST is based on the shift of fluorescent molecules moving in a temperature gradient (thermophoresis), which can be perturbed by interactions. In the MST MYC:MAX interaction assay, fluorescently labeled MAXbHLHZip was combined with MYCbHLHZip pre-mixed with compound.
MST was carried out on a Monolith NT.115 with blue/green filters, kindly provided by Luca Jovine, Karolinska Institutet Huddinge, according to manufacturer’s protocol (NanoTemper). MYCbHLHZip, MAXbHLHZip, BSA and BCL-XL recombinant proteins and compounds were diluted and titrated in PBS supplemented with 0.05% Triton-X-114 or 0.05% Tween-20. Titration of molecules was carried out in 16 PCR tubes into which a fixed concentration of fluorescent molecule was added. The mixture was applied to capillaries (standard treated, NanoTemper), and scanned in the Monolith NT.115 to measure initial fluorescence of molecule. MST was induced and fluorescence was measured during 40 seconds. Double measurements were carried out (MST power of 20% and 40%, or 40% and 60%) for each sample. Delta fluorescence or relative fluorescence of fluorescent molecule normalized to control vehicle was plotted against titrated molecule concentration. The protein labeling kit GREEN-NHS (NanoTemper) was used to label primary amines of proteins according to manufacture’s protocol.

[3] = system: MYCN-amplified neuroblastoma cells (IMR-32, Kelly, SK-N-DZ); test: Resazurin growth assay, MYCN-amplified neuroblastoma cell lines; type: cell-based, human; details: 48 hours; for growth of MYCN-amplified versus MYCN-non-amplified neuroblastoma cell lines: MYCMI-6 6.25 μM, MYCMI-11 and MYCMI-14 25 μM, 10058-F4 64 μM
Excerpt: HEK293A, MCF7, MDA-MB231, SK-N-F1, SK-N-RA, SK-N-AS, COS-7, HeLa, BJ cells, and Rat1 fibroblasts TGR-1 (wt), HO15.19 (MYC knockout) and HOmyc3 (MYC reconstituted HO15.19) were maintained in DMEM. The neuroblastoma cell lines Kelly, IMR-32 and SK-N-DZ, and the Burkitt’s lymphoma cell lines Mutu, Daudi and ST486 were kept in RPMI. SK-N-BE(2) cells were maintained in a 1:1 mixture of EMEM and F12 media, supplemented with 1% non-essential amino acid solution (NEAA) and 0.5% Glutamine. U2OS-MYC-ER cell lines were cultured in phenol-red free DMEM and treated with 100 nM 4-hydroxytamoxifen (HOT) (Sigma-Aldrich) to activate MYC-ER. IMR-90 was maintained in MEM. All media were supplemented with 10% FBS and 1% penicillin and streptomycin and kept at 37 °C and 5% CO2. All cell lines were mycoplasma free. Cell proliferation assays were performed as described in Supplementary Information. […]
Cell proliferation assays. Cell growth and viability was estimated in triplicates with WST-1
(Roche) or Resazurin sodium salt (Sigma-Aldrich) assays in medium at 37°C and 5% CO 2 for
2 hours after which absorbance or fluorescence, respectively, was measured with an Omega
Fluostar (BMG Labtech) in a 96 well plate format. […]

MYC:MAX isPLA signals, % of DMSO-treated controls [1] | IC50 [1] | shift of MAX thermophoresis relative to DMSO (MYC:MAX MST) (MYCbHLHZip:MAXbHLHZip) | SMILES | effect on endogenous MYC protein levels (western blot) (endogenous MYC protein) | effect on endogenous MYC protein levels (western blot) (endogenous MYC protein; listed as MYCM-14) | effect on FRA1:JUN interaction (isPLA) (FRA1:JUN) | HOT-induced expression of MYC target genes ODC1, RSG16 and CR2 [2] | growth of MYCN-amplified versus MYCN-non-amplified neuroblastoma cell lines [3] | Kd (MYCbHLHZip:MAXbHLHZip; titration with 1 µM MYCbHLHZip and labeled MAXbHLHZip, read-out: Kd of thermophoresis shift, MYC:MAX MST) | GI50 ([3]; Homo sapiens, Neuroblastoma cell, resazurin)
23% | ~6 µM and 6 µM | less effective | O=C(O)/C=C/C(=O)Nc1cccc2c1-c1ccccc1C2=O [MYCMI-14] | did not affect MYC protein levels to any greater extent | do not | did not significantly affect | reduced expression of the genes to a lesser extent | reduced growth of the MYCN-amplified cell lines significantly stronger than the MYCN-non-amplified cell lines | – | –
23% | ~6 µM and 6 µM | less effective | CCCCN(c1ccccc1)c1ncnc2c1cnn2C [MYCMI-11] | did not affect MYC protein levels to any greater extent; also recorded: do not | – | did not significantly affect | reduced expression of the genes to a lesser extent | reduced growth of the MYCN-amplified cell lines significantly stronger than the MYCN-non-amplified cell lines | – | –

SMILES | MYC:MAX isPLA signals, % of DMSO-treated controls [1] | IC50 [1] | shift of MAX thermophoresis relative to DMSO (MYC:MAX MST) (MYCbHLHZip:MAXbHLHZip) | effect on endogenous MYC protein levels (western blot) (endogenous MYC protein) | effect on endogenous MYC protein levels (western blot) (endogenous MYC protein; listed as MYCM-14) | effect on FRA1:JUN interaction (isPLA) (FRA1:JUN) | HOT-induced expression of MYC target genes ODC1, RSG16 and CR2 [2] | growth of MYCN-amplified versus MYCN-non-amplified neuroblastoma cell lines [3] | Kd (MYCbHLHZip:MAXbHLHZip; titration with 1 µM MYCbHLHZip and labeled MAXbHLHZip, read-out: Kd of thermophoresis shift, MYC:MAX MST) | GI50 ([3]; Homo sapiens, Neuroblastoma cell, resazurin)
CCOc1ccc2nc3cc(/N=N/c4ccc(N)nc4N)ccc3c(N)c2c1 [MYCMI-6] | 7% | < 1.5 µM and 1.5 µM | shifted MAX thermophoresis | did not affect MYC protein levels to any greater extent; also recorded: do not | – | did not significantly affect | significantly reduced | reduced growth of the MYCN-amplified cell lines significantly stronger than the MYCN-non-amplified cell lines | 4.3 µM | 2.5 to 6 µM
